Each structure is given as a SMILES string. Like-named read-outs stand apart in the source and are kept apart here.

The subject of one data set is A2780. Put plainly: MTT cytotoxicity, ovarian cancer cells A2780. Type of data set: cell-based, human. The protocol: (§1) Cell cultures. The human ovarian A2780 and A2780cisR cancer were obtained from the American Type Culture Collection (ATCC, Rockville, Md.). Cell lines were maintained in the logarithmic phase at 37° C. under a 5% carbon dioxide atmosphere using RPMI 1640 medium containing 10% fetal calf serum, antibiotics (50 units per mL penicillin and 50 μg mL^−1 streptomycin) and 2 mM L-glutamine. MTT assay. The growth inhibitory effect towards human cell lines was evaluated by means of MTT (tetrazolium salt reduction) assay. Briefly, 3-8×10^3 cells per well, dependent upon the growth characteristics of the cell line, were seeded in 96-well microplates in growth medium (100 μL) and then incubated at 37° C. under a 5% carbon dioxide atmosphere. After 24 h, the medium was removed and replaced with a fresh one containing the compound to be studied at an appropriate concentration. Triplicate cultures were established for each treatment. After 72 h, each well was treated with 10 μL of a 5 mg mL^−1 MTT (3-(4,5-dimethylthiazol-2-yl)-2,5-diphenyltetrazoliumbromide) solution, and after additional 5 h, 100 μL of a sodium dodecyl sulfate (SDS) solution in 0.01 M HCl were added. Following overnight incubation, the inhibition of cell growth induced by the tested complexes was detected by measuring the absorbance of each well at 570 nm using a Bio-Rad 680 microplate reader (Bio-Rad, Hercules, CA).The mean absorbance for each drug dose was expressed as a percentage of the control untreated well absorbance and plotted vs. drug concentration.

A further data set relates to A2780cisR. Put plainly: MTT cytotoxicity, cisplatin resistant line A2780cisR. Type of data set: cell-based, human. The protocol:
as §1

For a further data set, the system named is A375. Put plainly: Cytotoxicity, A375 cells. Type of data set: cell-based, human.
The subject of another data set is PC9. The data set is described as follows: Cytotoxicity, PC9 cells. Type of data set: cell-based, human.
Data set [1] concerns Lewis lung carcinoma (LLC). Put plainly: In vivo anticancer activity toward Lewis lung carcinoma (LLC) solid tumor. Also on record: species or system C57BL mice. The settings on record: for reduction of tumor growth / tumor mass compared to the control group: LLC model, day 15, rounded values of the text; for In vivo efficacy LLC Inhibition of tumor growth (%) / In vivo efficacy LLC tumor weight: Table 1, daily dose 20 (Gem-Carb complex, oral), 3 (cisplatin), 60 (gemcitabine); for In vivo efficacy LLC Inhibition of tumor growth (%): day 15, vs control, 60 + 3 (combination) mg kg^-1; for In vivo efficacy LLC tumor weight / Average tumor weight (mean ± SD, g) / Inhibition of tumor growth (%): day 15; for In vivo efficacy LLC tumor weight: 60 + 3 (combination) mg kg^-1, days 7-14; for Average tumor weight (mean ± SD, g) / Inhibition of tumor growth (%): Table 2, daily oral 20 mg kg^-1 Gem-Carb complex, daily i.p. 3 mg kg^-1 cisplatin, 60 mg kg^-1 Gem or combination, days 7-14. The protocol: In vivo anticancer activity toward Lewis lung carcinoma (LLC). All studies involving animal testing were carried out in accordance with ethical guidelines for animal research acknowledging the European Directive 2010/63/UE as to the animal welfare and protection and the related codes of practice. The mice were purchased from Charles River, housed in steel cages under controlled environmental conditions (constant temperature, humidity, and 12 h dark/light cycle), and alimented with commercial standard feed and tap water ad libitum. The LLC cell line was purchased from ECACC, United Kingdom. The LLC cell line was maintained in DMEM (Euroclone) supplemented with 10% heat inactivated fetal bovine serum (Euroclone), 10 mM L-glutamine, 100 U mL-1 penicillin, and 100 μg mL^−1 streptomycin in a 5% CO2 air incubator at 37° C. The LLC was implanted intramuscularly (i.m.) as a 2×10^6 cell inoculum into the right hind leg of 8 week old male and female C57BL mice (24±3 g body weight). […] Control mice received the vehicle (0.5% DMSO (v/v) and 99.5% of a saline solution (v/v)), whereas treated groups received daily doses of ctc-[Pt(NH3)2(Gem-Carb)(PhB)Cl2] […] At day 15, animals were sacrificed, the legs were amputated at the proximal end of the femur, and the inhibition of tumor growth was determined from the difference in the weights of the tumor-bearing leg and the healthy leg of the animals, expressed as a percentage referenced to the control animals Body weight was measured at day 0 and from day 7 onwards every 2 days and was taken as a parameter for systemic toxicity. All presented values are the means ±SD of no less than three measurements.
Moreover, it provides no information on the toxicity of the compounds. […] Seven days after tumor inoculation the tumor-bearing mice were randomized into vehicle control and treatment groups. Control mice received the vehicle (0.5% DMSO (v/v) and 99.5% of a saline solution (v/v)), whereas treated groups received daily doses of ctc-[Pt(NH3)2(Gem-Carb)(PhB)Cl2] […] As an estimation of the adverse side effects, changes in the body weights were monitored every two days.

On the set-up of data set [2]: species or system C57BL mice. The settings on record: mouse, in vivo. The protocol:
In vivo anticancer activity toward Lewis lung carcinoma (LLC). All studies involving animal testing were carried out in accordance with ethical guidelines for animal research acknowledging the European Directive 2010/63/UE as to the animal welfare and protection and the related codes of practice. The mice were purchased from Charles River, housed in steel cages under controlled environmental conditions (constant temperature, humidity, and 12 h dark/light cycle), and alimented with commercial standard feed and tap water ad libitum. The LLC cell line was purchased from ECACC, United Kingdom. […] At day 15, animals were sacrificed, the legs were amputated at the proximal end of the femur, and the inhibition of tumor growth was determined from the difference in the weights of the tumor-bearing leg and the healthy leg of the animals, expressed as a percentage referenced to the control animals Body weight was measured at day 0 and from day 7 onwards every 2 days and was taken as a parameter for systemic toxicity. […]
Moreover, it provides no information on the toxicity of the compounds. […] As an estimation of the adverse side effects, changes in the body weights were monitored every two days.

A further data set is described as follows: physchem. The format is physicochemical. The protocol: ctc-[Pt(NH3)2(Tax-Carb)(OH)Cl2] (3 mg, 0.0025 mmol) was dissolve in 750 μL of DMSO-d6 and mixed with ascorbic acid (2.2 mg, 0.0125 mmol). The ^1H NMR spectra were recorded every 6 min at 37° C.
We incubated ctc-[Pt(NH3)2(Tax-Carb)(OH)Cl2] with 5 eq of ascorbate and the reduction was followed by ^1H NMR. The NH proton in ctc-[Pt(NH3)2(Tax-Carb)(OH)Cl2] resonates at 9.2 ppm and in free taxol at ˜8.85 ppm. […] Similar results were obtained for the reduction of ctc-[Pt(NH3)2(EM-Carb)(OAc)Cl2] (FIG. 5A).

[3] abbreviates: Homo sapiens, A2780, Table 1, 72 h incubation, MTT, read-out: In vitro IC50 (μM) Cancer cell lines A2780.
Where [4] appears, read: Homo sapiens, A2780cisR, Table 1, 72 h incubation, MTT, read-out: In vitro IC50 (μM) Cancer cell lines A2780cisR.

In the case of `CC(=O)O[C@H]1C(=O)[C@@]2(C)[C@H]([C@H](OC(=O)c3ccccc3)[C@]3(O)C[C@H](OC(=O)[C@H](O)[C@@H](NC(=O)c4ccccc4)c4ccccc4)C(C)=C1C3(C)C)[C@]1(OC(C)=O)CO[C@@H]1C[C@@H]2O` [Taxol, Paclitaxel], the IC50 with A2780 (setting [3]) turned out to be 0.0022 ± 0.001 µM; with A2780 (Homo sapiens, A2780, Table 4, cells in nM, read-out: Cytotoxicity data A2780), 0.00105 µM; in the data set on A2780cisR (setting [4]), 0.003 ± 6e-05 µM; in the data set with A2780cisR (Homo sapiens, A2780cisR, Table 4, cells in nM, read-out: Cytotoxicity data A2890cisR), 0.0031 µM; in the data set with A375 (Homo sapiens, A-375, Table 4, cells in nM, read-out: Cytotoxicity data A375), 10 nM; in the data set with PC9 (Homo sapiens, PC-9, Table 4, cells in nM, read-out: Cytotoxicity data PC9), 4.5 nM.
Turning to `N.N.[Cl-].[Cl-].[OH-].[OH-].[Pt+4]` [Oxoplatin, oxoplatin], the IC50 in the data set on A2780 (Table 3, unit μM, read-out: Cytotoxicity data A2780 mean) was 0.45 µM; in the data set on A2780cisR (Table 3, unit μM, read-out: Cytotoxicity data A2780 res mean) it was 1.17 µM; in the data set on A375 (Table 3, unit μM, read-out: Cytotoxicity data A375 mean) it was 2210 nM; in the data set with PC9 (Table 3, unit μM, read-out: Cytotoxicity data PC9 mean) it was 3990 nM.
Take `N.N.[Cl][Pt][Cl]` [Cisplatin, cisplatin]: in data set [1], the “reduction of tumor growth / tumor mass compared to the control group” value was roughly 90%; the “In vivo efficacy LLC Inhibition of tumor growth (%)” value is 90.3%; the “In vivo efficacy LLC tumor weight” value is given as 0.040 ± 0.01 g; the “Average tumor weight (mean ± SD, g)” value amounted to 0.040 ± 0.01 g. The “Inhibition of tumor growth (%)” value in data set [1] came to 90.3%.
With `COc1ccc(/C=C\c2cc(OC)c(OC)c(OC)c2)cc1O` [CA4, combretastatin-A4], the IC50 with A2780 (Table 3, unit nM, read-out: Cytotoxicity data A2780 mean) came to 0.00212 µM; in the data set on A2780cisR (Table 3, unit nM, read-out: Cytotoxicity data A2780 res mean), 0.00263 µM; in the data set on A375 (Table 3, unit nM, read-out: Cytotoxicity data A375 mean), 1.63 nM; in the data set with PC9 (Table 3, unit nM, read-out: Cytotoxicity data PC9 mean) it was 4.87 nM.
Turning to `Nc1ccn([C@@H]2O[C@H](CO)[C@@H](O)C2(F)F)c(=O)n1` [Gemcitabine, gemcitabine], the IC50 with A2780 (setting [3]) came out at 0.002 ± 0.001 µM. Moreover, the IC50 in the data set on A2780cisR (setting [4]) came out at 0.005 ± 0.001 µM. Further, in data set [1], the “reduction of tumor growth / tumor mass compared to the control group” value was “about 80%”; the “In vivo efficacy LLC Inhibition of tumor growth (%)” value was determined as 80.5%; the “In vivo efficacy LLC tumor weight” value is reported as 0.08 ± 0.2 g; the “Average tumor weight (mean ± SD, g)” value is 0.080 ± 0.2 g. Moreover, the “Inhibition of tumor growth (%)” value in data set [1] is on record as 80.5%. Also, in data set [2], the body weight loss is recorded as roughly 20%.
For `CC(=O)OC1C(=O)C2(C)C(O)CC3OCC3(OC(C)=O)C2C(OC(=O)c2ccccc2)C2(O)CC(OC(=O)C(OC(=O)[O][Pt]([NH2])([NH2])([OH])([Cl])[Cl])C(NC(=O)c3ccccc3)c3ccccc3)C(C)=C1C2(C)C` (stereo not shown) [ctc-[Pt(NH3)2(Tax-Carb)(OH)Cl2]], the half-life (in general, the time in which the quantity being followed falls by half) at 3.3 mM in the data set “physchem” worked out at 25 min.

For the origin of these results see patent US20220251126A1, “ANTICANCER AGENTS” (Yissum Research Development Company of the Hebrew …, priority 2019, published 2022).
